From patent US7345069B2, “Oxidative activation and episulfonium ion-mediated DNA alkylation-based anticancer” (Wisconsin Alumni Research Foundation, priority 2004, dated 2008)
Read-outs that look alike come from different tables or passages of the source.

Columns and labels:
DU-145 cells = assay: Growth inhibition by DNA fluorescence assay, cells grown in 5% FBS, 72 h after drug treatment; type: cell-based; conditions: DNA fluorescence 72 h after drug treatment
Experimental: The growth inhibitory effects of LNM against LNCaP and DU-145 cell lines grown in 5% FBS were determined by measuring DNA fluorescence 72 h after drug treatment. […] Growth inhibitory effects of LNM against LNCaP and DU-145 cells were expressed as percent of control untreated cells are shown in FIG. 7.

[1] = test system: immortalized normal prostatic epithelial cells (E6); assay: Growth inhibition by DNA assay, immortalized normal prostatic epithelial cells (E6); type: cell-based
LNCaP cells [2] = assay: Growth inhibition by DNA assay, LNCaP cells in androgen-depleted medium, untreated or pretreated with R1881 (with or without vitamin E succinate); type: cell-based
Experimental: To test whether TG-25 was activated under oxidative stress, LNCaP cells were grown in androgen-depleted medium in the presence of 0.01 nM and 1 nM androgen analog R1881 for 96 h. […] This concentration was also close to the range of concentration of the active androgen dihydrotestosterone found in normal human male and patients treated with androgen ablation therapy. The growth inhibitory effect of LNM and TG-25 against LNCaP cells either untreated or pretreated with R1881 as shown in FIG. 9 and FIG. 10, respectively. Under these treatment conditions, 0.01 nM R1881 stimulated growth by about 30% and 1 nM R1881 inhibited cell growth to about 40% of the control untreated cells. The data shown in FIG. 9 and FIG. 10 are normalized for the growth stimulatory or inhibitory effects of R1881 alone.
The effect of LNM and TG-25 against LNCaP cells pretreated with both R1881 and α-tocopherol succinate are shown in FIG. 11 and FIG. 12, respectively. All data for pretreated cells were normalized for the growth inhibition induced by α-tocopherol succinate plus R1881.

LNCaP cells [3] = conditions: cited from earlier work; for cellular ROS level: 96 h
[4] = In vitro oxidation of purified TG-25 on exposure to O2; type: physicochemical; conditions: aqueous or methanol solution
Excerpt: Three additional minor metabolites were also characterized from the ΔlnmE strain, and their structures were elucidated by the combination of MS, ^1H- and ^13C—NMR, and various 2D NMR spectroscopic methods as discussed above (compound 1, 2, 4, and 5 as shown in FIG. 6) Although these compounds were isolated in minor quantities and were apparently derived from TG-25 during the isolation, their structures were critical in helping to define the oxidative activation of TG-25 undergo rearrangement via an episulfornium ion intermediate (FIG. 6). It was clear by comparing the structure of TG-25 with those of 1 and 2 that an oxidation step was required for their conversion. Isolation of compound 4 shed light into how this oxidative rearrangement from TG-25 to 1 or 2 actually happens. Thus, as depicted in FIG. 6 TG-25 apparently was first oxidized by O2 to form the dimmer 4, activating the sulfhydryl group into a disulfide. Nucleophilic attack of the disulfide by the double bond could then be envisaged to form an episulfonium ion intermediate, in a mechanistic analogy to LNM, that subsequently could be trapped by H2O (leading the formation of 1) or methanol (leading to the formation of 2). This hypothesis was confirmed by re-producing the chemistry in vitro with purified TG-25.

C/C1=C\[C@@H](O)C(=O)/C=C/C=C\c2csc(n2)[C@@H](C)NC(=O)C[C@@]2(CC1)[S+]([O-])SC(=O)[C@]2(C)O (stereo partly drawn) [LNM, leinamycin]
sensitivity of DU-145 cells compared with LNCaP cells (DU-145 cells): slightly more sensitive to LNM | IC50 ([1]; Epithelial cell, read-out: IC50, growth inhibition): < 0.0002 µM | growth inhibitory effect compared with the prostate cancer cell lines ([1]; immortalized normal prostatic epithelial cells vs LNCaP and DU-145): stronger growth inhibitory effect | growth inhibitory effect in androgen depleted medium compared with 5% FBS (LNCaP cells [2]; LNCaP cells): more pronounced | influence of R1881 pretreatment on growth inhibition (LNCaP cells [2]; LNCaP cells pretreated with 0.01 nM or 1 nM R1881): not appreciably affected | influence of α-tocopherol succinate on growth inhibition (LNCaP cells [2]; LNM alone or in combination with R1881, LNCaP cells): no effect

C[C@]1(O)CC[C@H]2[C@@H]3CCC4=CC(=O)CCC4=C3C=C[C@@]21C [Compound R1881]
growth stimulation by R1881 alone (LNCaP cells [2]; 0.01 nM R1881, 96 h, androgen-depleted medium): about 30% | cell growth with R1881 alone (LNCaP cells [2]; 1 nM R1881, 96 h, androgen-depleted medium): about 40 % of the control untreated cells | cellular ROS level (LNCaP cells [3]; 0.01 nM R1881, LNCaP cells): reduces the cellular ROS | cellular ROS level (LNCaP cells [3]; 1 nM R1881, LNCaP cells): increases cellular ROS level

C/C1=C\CC(=O)/C=C/C=C\c2csc(n2)[C@@H](C)NC(=O)C[C@@](S)(C(C)C(=O)O)CC1 (stereo partly drawn) [TG-25]
growth inhibitory effect ([1]; immortalized normal prostatic epithelial cells, up to μM concentration): little growth inhibitory effect even at μM concentration | conversion upon exposure to O2 [4]: rapidly converted to 1 or 2 | IC50 (LNCaP cells [2]; Homo sapiens, LNCaP cells pretreated with 1 nM androgen analog R1881, read-out: IC50, growth inhibition of LNCaP prostate cancer cells): 5 to 10 µM | growth inhibitory effect after co-pretreatment with R1881 and vitamin E (α-tocopherol succinate) (LNCaP cells [2]; LNCaP cells pretreated with 1 nM R1881 plus α-tocopherol succinate, normalized for pretreatment alone): completely reverses the growth inhibitory effect | growth inhibitory effect against cells pretreated with 0.01 nM R1881 (LNCaP cells [2]; LNCaP cells, 0.01 nM R1881 for 96 h): no effect | growth inhibitory effect against R1881 pretreated cells (LNCaP cells [2]; LNCaP cells, R1881 pretreated (high oxidative stress)): markedly inhibited the growth | growth inhibitory effect against control untreated cells (LNCaP cells [2]; LNCaP cells, androgen-depleted medium, no R1881): no effect

Cc1c(C)c2c(c(C)c1OC(=O)CCC(=O)O)CCC(C)(CCCC(C)CCCC(C)CCCC(C)C)O2 (stereo not drawn) [α-tocopherol (vitamin E) succinate]
effect on the increase in ROS level by 1 nM R1881 pretreatment (LNCaP cells [3]; co-treatment of LNCaP cells): can be inhibited
